Assay results published in the NIST ThermoML archive (doi:10.1021/je049793l).
± gives the expanded uncertainty stated by the source.

Assays:
[1] = 298.15 K; 101.3 kPa; Liquid
[2] = xn = mol fraction of the nth substance listed; settings: 298.15 K, 101.3 kPa, Liquid

Cc1ccccc1C [1,2-dimethylbenzene]
mass density [1]: 875.2 ± 1 kg/m3 | speed of sound [1]: 1349 ± 3 m/s | viscosity [1]: 0.768 ± 0.013 mPa·s

Cc1ccccc1C [1,2-dimethylbenzene] + CCC(C)=O
mass density ([2]; x1 = 1): 875.2 ± 1 kg/m3 | speed of sound ([2]; x1 = 1): 1349 ± 3 m/s | viscosity ([2]; x1 = 1): 0.768 ± 0.013 mPa·s

Cc1cccc(C)c1 [1,3-dimethylbenzene]
mass density [1]: 859.4 ± 1 kg/m3 | speed of sound [1]: 1323 ± 4 m/s | viscosity [1]: 0.587 ± 0.011 mPa·s

Cc1cccc(C)c1 [1,3-dimethylbenzene] + CCC(C)=O
mass density ([2]; x1 = 0.0428): 803.5 ± 0.9 kg/m3 | speed of sound ([2]; x1 = 0.0428): 1204 ± 4 m/s | viscosity ([2]; x1 = 0.0428): 0.384 ± 0.009 mPa·s | mass density ([2]; x1 = 0.1084): 809.2 ± 0.9 kg/m3 | speed of sound ([2]; x1 = 0.1084): 1218 ± 4 m/s | viscosity ([2]; x1 = 0.1084): 0.398 ± 0.009 mPa·s | mass density ([2]; x1 = 0.2261): 818.3 ± 0.9 kg/m3 | speed of sound ([2]; x1 = 0.2261): 1240 ± 4 m/s | viscosity ([2]; x1 = 0.2261): 0.422 ± 0.009 mPa·s | mass density ([2]; x1 = 0.3524): 827 ± 0.9 kg/m3 | speed of sound ([2]; x1 = 0.3524): 1256 ± 4 m/s | viscosity ([2]; x1 = 0.3524): 0.448 ± 0.01 mPa·s | mass density ([2]; x1 = 0.4941): 835.7 ± 0.9 kg/m3 | speed of sound ([2]; x1 = 0.4941): 1273 ± 4 m/s | viscosity ([2]; x1 = 0.4941): 0.478 ± 0.01 mPa·s | mass density ([2]; x1 = 0.646): 844.1 ± 0.9 kg/m3 | speed of sound ([2]; x1 = 0.646): 1293 ± 4 m/s | viscosity ([2]; x1 = 0.646): 0.51 ± 0.01 mPa·s | mass density ([2]; x1 = 0.8137): 852 ± 1 kg/m3 | speed of sound ([2]; x1 = 0.8137): 1312 ± 4 m/s | viscosity ([2]; x1 = 0.8137): 0.546 ± 0.011 mPa·s | mass density ([2]; x1 = 0.9235): 856.7 ± 1 kg/m3 | speed of sound ([2]; x1 = 0.9235): 1320 ± 4 m/s | viscosity ([2]; x1 = 0.9235): 0.57 ± 0.011 mPa·s | mass density ([2]; x1 = 1): 859.4 ± 1 kg/m3 | speed of sound ([2]; x1 = 1): 1323 ± 4 m/s | viscosity ([2]; x1 = 1): 0.587 ± 0.011 mPa·s

Cc1ccc(C)cc1 [1,4-dimethylbenzene]
mass density [1]: 856.1 ± 1 kg/m3 | speed of sound [1]: 1316 ± 3 m/s | viscosity [1]: 0.609 ± 0.011 mPa·s

Cc1ccc(C)cc1 [1,4-dimethylbenzene] + CCC(C)=O
mass density ([2]; x1 = 1): 856.1 ± 1 kg/m3 | speed of sound ([2]; x1 = 1): 1316 ± 3 m/s | viscosity ([2]; x1 = 1): 0.609 ± 0.011 mPa·s

CCC(C)=O [butanone]
mass density [1]: 799.6 ± 0.9 kg/m3 | speed of sound [1]: 1195 ± 3 m/s | viscosity [1]: 0.376 ± 0.009 mPa·s

CCC(C)=O [butanone] + CC(C)c1ccccc1
mass density ([2]; x2 = 0): 799.6 ± 0.9 kg/m3 | speed of sound ([2]; x2 = 0): 1195 ± 3 m/s | viscosity ([2]; x2 = 0): 0.376 ± 0.009 mPa·s

CCC(C)=O [butanone] + Cc1ccc(C)cc1
mass density ([2]; x2 = 0): 799.6 ± 0.9 kg/m3 | speed of sound ([2]; x2 = 0): 1195 ± 3 m/s | viscosity ([2]; x2 = 0): 0.376 ± 0.009 mPa·s | mass density ([2]; x2 = 0.0429): 806 ± 0.9 kg/m3 | speed of sound ([2]; x2 = 0.0429): 1218 ± 3 m/s | viscosity ([2]; x2 = 0.0429): 0.392 ± 0.009 mPa·s | mass density ([2]; x2 = 0.1074): 813.8 ± 0.9 kg/m3 | speed of sound ([2]; x2 = 0.1074): 1237 ± 3 m/s | viscosity ([2]; x2 = 0.1074): 0.414 ± 0.009 mPa·s | mass density ([2]; x2 = 0.2235): 823.5 ± 0.9 kg/m3 | speed of sound ([2]; x2 = 0.2235): 1257 ± 3 m/s | viscosity ([2]; x2 = 0.2235): 0.444 ± 0.009 mPa·s | mass density ([2]; x2 = 0.3501): 830.4 ± 0.9 kg/m3 | speed of sound ([2]; x2 = 0.3501): 1272 ± 3 m/s | viscosity ([2]; x2 = 0.3501): 0.471 ± 0.01 mPa·s | mass density ([2]; x2 = 0.4895): 836.6 ± 0.9 kg/m3 | speed of sound ([2]; x2 = 0.4895): 1289 ± 3 m/s | viscosity ([2]; x2 = 0.4895): 0.5 ± 0.01 mPa·s | mass density ([2]; x2 = 0.6419): 842.9 ± 0.9 kg/m3 | speed of sound ([2]; x2 = 0.6419): 1299 ± 3 m/s | viscosity ([2]; x2 = 0.6419): 0.533 ± 0.01 mPa·s | mass density ([2]; x2 = 0.8117): 849.6 ± 1 kg/m3 | speed of sound ([2]; x2 = 0.8117): 1308 ± 3 m/s | viscosity ([2]; x2 = 0.8117): 0.572 ± 0.011 mPa·s | mass density ([2]; x2 = 0.9213): 853.2 ± 1 kg/m3 | speed of sound ([2]; x2 = 0.9213): 1313 ± 3 m/s | viscosity ([2]; x2 = 0.9213): 0.596 ± 0.011 mPa·s

CCC(C)=O [butanone] + Cc1cccc(C)c1
mass density ([2]; x2 = 0): 799.6 ± 0.9 kg/m3 | speed of sound ([2]; x2 = 0): 1195 ± 4 m/s | viscosity ([2]; x2 = 0): 0.376 ± 0.009 mPa·s

CCC(C)=O [butanone] + Cc1ccccc1C
mass density ([2]; x2 = 0): 799.6 ± 0.9 kg/m3 | speed of sound ([2]; x2 = 0): 1195 ± 3 m/s | viscosity ([2]; x2 = 0): 0.376 ± 0.009 mPa·s | mass density ([2]; x2 = 0.0437): 805.6 ± 0.9 kg/m3 | speed of sound ([2]; x2 = 0.0437): 1208 ± 3 m/s | viscosity ([2]; x2 = 0.0437): 0.39 ± 0.009 mPa·s | mass density ([2]; x2 = 0.1095): 813.7 ± 0.9 kg/m3 | speed of sound ([2]; x2 = 0.1095): 1222 ± 3 m/s | viscosity ([2]; x2 = 0.1095): 0.412 ± 0.009 mPa·s | mass density ([2]; x2 = 0.2288): 825.7 ± 0.9 kg/m3 | speed of sound ([2]; x2 = 0.2288): 1244 ± 3 m/s | viscosity ([2]; x2 = 0.2288): 0.451 ± 0.01 mPa·s | mass density ([2]; x2 = 0.3564): 836.2 ± 0.9 kg/m3 | speed of sound ([2]; x2 = 0.3564): 1266 ± 3 m/s | viscosity ([2]; x2 = 0.3564): 0.493 ± 0.01 mPa·s | mass density ([2]; x2 = 0.4969): 846.1 ± 0.9 kg/m3 | speed of sound ([2]; x2 = 0.4969): 1288 ± 3 m/s | viscosity ([2]; x2 = 0.4969): 0.542 ± 0.011 mPa·s | mass density ([2]; x2 = 0.65): 856 ± 1 kg/m3 | speed of sound ([2]; x2 = 0.65): 1310 ± 3 m/s | viscosity ([2]; x2 = 0.65): 0.601 ± 0.011 mPa·s | mass density ([2]; x2 = 0.8165): 865.9 ± 1 kg/m3 | speed of sound ([2]; x2 = 0.8165): 1331 ± 3 m/s | viscosity ([2]; x2 = 0.8165): 0.673 ± 0.012 mPa·s | mass density ([2]; x2 = 0.9244): 871.7 ± 1 kg/m3 | speed of sound ([2]; x2 = 0.9244): 1339 ± 3 m/s | viscosity ([2]; x2 = 0.9244): 0.727 ± 0.013 mPa·s

CC(C)c1ccccc1 [isopropylbenzene]
mass density [1]: 857.1 ± 1 kg/m3 | speed of sound [1]: 1338 ± 3 m/s | viscosity [1]: 0.739 ± 0.013 mPa·s

CC(C)c1ccccc1 [isopropylbenzene] + CCC(C)=O
mass density ([2]; x1 = 0.0377): 805 ± 0.9 kg/m3 | speed of sound ([2]; x1 = 0.0377): 1204 ± 3 m/s | viscosity ([2]; x1 = 0.0377): 0.388 ± 0.009 mPa·s | mass density ([2]; x1 = 0.0964): 812.2 ± 0.9 kg/m3 | speed of sound ([2]; x1 = 0.0964): 1217 ± 3 m/s | viscosity ([2]; x1 = 0.0964): 0.408 ± 0.009 mPa·s | mass density ([2]; x1 = 0.2025): 821.7 ± 0.9 kg/m3 | speed of sound ([2]; x1 = 0.2025): 1240 ± 3 m/s | viscosity ([2]; x1 = 0.2025): 0.445 ± 0.009 mPa·s | mass density ([2]; x1 = 0.3251): 829.5 ± 0.9 kg/m3 | speed of sound ([2]; x1 = 0.3251): 1262 ± 3 m/s | viscosity ([2]; x1 = 0.3251): 0.486 ± 0.01 mPa·s | mass density ([2]; x1 = 0.4599): 835.4 ± 0.9 kg/m3 | speed of sound ([2]; x1 = 0.4599): 1279 ± 3 m/s | viscosity ([2]; x1 = 0.4599): 0.535 ± 0.01 mPa·s | mass density ([2]; x1 = 0.615): 842 ± 0.9 kg/m3 | speed of sound ([2]; x1 = 0.615): 1290 ± 3 m/s | viscosity ([2]; x1 = 0.615): 0.592 ± 0.011 mPa·s | mass density ([2]; x1 = 0.7937): 849.2 ± 1 kg/m3 | speed of sound ([2]; x1 = 0.7937): 1298 ± 3 m/s | viscosity ([2]; x1 = 0.7937): 0.66 ± 0.012 mPa·s | mass density ([2]; x1 = 0.9123): 853.9 ± 1 kg/m3 | speed of sound ([2]; x1 = 0.9123): 1308 ± 3 m/s | viscosity ([2]; x1 = 0.9123): 0.705 ± 0.012 mPa·s | mass density ([2]; x1 = 1): 857.1 ± 1 kg/m3 | speed of sound ([2]; x1 = 1): 1338 ± 3 m/s | viscosity ([2]; x1 = 1): 0.739 ± 0.013 mPa·s
